Results published in patent publication US20240082221A1, “COMPOSITIONS AND METHODS FOR THE IDENTIFICATION OF COMPOUNDS THAT PROTECT AGAINST LIPOFUSCIN CYTOTOXICITY” (priority 2021, published 2024).

Test system: LLO-induced atypical necroptosis
Test: LLO-induced atypical necroptosis, protection assay
Assay type: cell-based

Compound | protection against LLO-induced atypical necroptosis
N=C1S/C(=C\c2cn[nH]c2-c2ccc(F)cc2)C(=O)N1c1nccs1 [Nec7, Necrostatin 7] | preventable
[O-][n+]1cccc(/C(Cl)=N/OC[C@H](O)CN2CCCCC2)c1 [arimoclomol] | preventable
